{"source": "patent US20230085307A1", "about": "“PYRIDAZINONE COMPOUND AND HERBICIDE” (NISSAN CHEMICAL CORPORATION, priority 2019, published 2023)", "key": {"barnyard grass [1]": {"tested_on": "barnyard grass", "assay": "Test Example 4: herbicidal effect by soil treatment (Table 19, symbol H)", "format": "in vivo, barnyard grass (Echinochloa crus-galli)", "conditions": "AAH 296 g/ha", "outline": "(§1)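 Applied as a water-diluted emulsion, the compound was sprayed onto soil covering newly sown seeds. Evaluation came three weeks after application, in a greenhouse held at 25° C. to 30° C.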"}, "velvetleaf [2]": {"tested_on": "velvetleaf", "assay": "Test Example 5: herbicidal effect by foliage application, plastic box (Table 20, symbol M)", "format": "in vivo, velvetleaf (Abutilon theophrasti)", "conditions": "foliage application, AAH 296 g/ha, three weeks after application", "outline": "(§2)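 Sow seeds spot-wise in sterilized diluvial soil; cover with ~1.5 cm soil. Grow 14 days in greenhouse, 25° C. to 30° C. Spray foliage with emulsion diluted to predetermined amount. Rate effect after 3 weeks.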"}, "redroot pigweed [3]": {"tested_on": "redroot pigweed", "assay": "Test Example 5: herbicidal effect by foliage application, plastic box (Table 20, symbol N)", "format": "in vivo, redroot pigweed (Amaranthus retroflexus)", "conditions": "foliage application, AAH 296 g/ha, three weeks after application", "outline": "as §2"}, "southern crabgrass [4]": {"tested_on": "southern crabgrass", "assay": "Test Example 5: herbicidal effect by foliage application, plastic box (Table 20, symbol F)", "format": "in vivo, southern crabgrass (Digitaria ciliaris)", "conditions": "foliage application, AAH 296 g/ha, three weeks after application", "outline": "as §2"}, "Chinese sprangletop": {"tested_on": "Chinese sprangletop", "assay": "Test Example 3: herbicidal effect by foliage application, Wagner pot (Table 18, symbol D)", "format": "in vivo, chinese sprangletop (Leptochloa chinensis)", "conditions": "296 g/ha", "outline": "(§3)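 Plants were sown in alluvial soil held under 0.1–0.5 cm standing water and grown 14 days in a greenhouse at 25–30 °C. An emulsifiable formulation, water-diluted to the set dose, was then sprayed onto the foliage, and effects were scored three weeks later using previously defined criteria.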"}, "windgrass [5]": {"tested_on": "windgrass", "assay": "Test Example 4: herbicidal effect by soil treatment (Table 19, symbol L)", "format": "in vivo, windgrass (Apera spica-venti)", "conditions": "AAH 296 g/ha", "outline": "as §1"}, "wild oat [6]": {"tested_on": "wild oat", "assay": "Test Example 5: herbicidal effect by foliage application, plastic box (Table 20, symbol I)", "format": "in vivo, wild oat (Avena fatua)", "conditions": "foliage application, AAH 296 g/ha, three weeks after application", "outline": "as §2"}, "barnyard grass [7]": {"tested_on": "barnyard grass", "assay": "Test Example 3: herbicidal effect by foliage application, Wagner pot (Table 18, symbol H)", "format": "in vivo, barnyard grass (Echinochloa crus-galli)", "conditions": "296 g/ha", "outline": "as §3"}, "rice flat sedge": {"tested_on": "rice flat sedge", "assay": "Test Example 3: herbicidal effect by foliage application, Wagner pot (Table 18, symbol E)", "format": "in vivo, rice flat sedge (Cyperus iria)", "conditions": "296 g/ha", "outline": "as §3"}, "Italian ryegrass [8]": {"tested_on": "Italian ryegrass", "assay": "Test Example 4: herbicidal effect by soil treatment (Table 19, symbol K)", "format": "in vivo, Italian ryegrass (Lolium multiflorum)", "conditions": "AAH 296 g/ha", "outline": "as §1"}, "green foxtail [9]": {"tested_on": "green foxtail", "assay": "Test Example 5: herbicidal effect by foliage application, plastic box (Table 20, symbol G)", "format": "in vivo, green foxtail (Setaria viridis)", "conditions": "foliage application, AAH 296 g/ha, three weeks after application", "outline": "as §2"}, "persian speedwell [10]": {"tested_on": "persian speedwell", "assay": "Test Example 4: herbicidal effect by soil treatment (Table 19, symbol R)", "format": "in vivo, Persian speedwell (Veronica persica)", "conditions": "AAH 296 g/ha", "outline": "as §1"}, "lambsquarters [11]": {"tested_on": "lambsquarters", "assay": "Test Example 5: herbicidal effect by foliage application, plastic box (Table 20, symbol O)", "format": "in vivo, lambsquarters (Chenopodium album)", "conditions": "foliage application, AAH 296 g/ha, three weeks after application", "outline": "as §2"}, "windgrass [12]": {"tested_on": "windgrass", "assay": "Test Example 5: herbicidal effect by foliage application, plastic box (Table 20, symbol L)", "format": "in vivo, windgrass (Apera spica-venti)", "conditions": "foliage application, AAH 296 g/ha, three weeks after application", "outline": "as §2"}, "green foxtail [13]": {"tested_on": "green foxtail", "assay": "Test Example 4: herbicidal effect by soil treatment (Table 19, symbol G)", "format": "in vivo, green foxtail (Setaria viridis)", "conditions": "AAH 296 g/ha", "outline": "as §1"}, "lambsquarters [14]": {"tested_on": "lambsquarters", "assay": "Test Example 4: herbicidal effect by soil treatment (Table 19, symbol O)", "format": "in vivo, lambsquarters (Chenopodium album)", "conditions": "AAH 296 g/ha", "outline": "as §1"}, "Italian ryegrass [15]": {"tested_on": "Italian ryegrass", "assay": "Test Example 5: herbicidal effect by foliage application, plastic box (Table 20, symbol K)", "format": "in vivo, Italian ryegrass (Lolium multiflorum)", "conditions": "foliage application, AAH 296 g/ha, three weeks after application", "outline": "as §2"}, "wild oat [16]": {"tested_on": "wild oat", "assay": "Test Example 4: herbicidal effect by soil treatment (Table 19, symbol I)", "format": "in vivo, wild oat (Avena fatua)", "conditions": "AAH 296 g/ha", "outline": "as §1"}, "velvetleaf [17]": {"tested_on": "velvetleaf", "assay": "Test Example 4: herbicidal effect by soil treatment (Table 19, symbol M)", "format": "in vivo, velvetleaf (Abutilon theophrasti)", "conditions": "AAH 296 g/ha", "outline": "as §1"}, "persian speedwell [18]": {"tested_on": "persian speedwell", "assay": "Test Example 5: herbicidal effect by foliage application, plastic box (Table 20, symbol R)", "format": "in vivo, Persian speedwell (Veronica persica)", "conditions": "foliage application, AAH 296 g/ha, three weeks after application", "outline": "as §2"}, "blackgrass [19]": {"tested_on": "blackgrass", "assay": "Test Example 4: herbicidal effect by soil treatment (Table 19, symbol J)", "format": "in vivo, blackgrass (Alopecurus myosuroides)", "conditions": "AAH 296 g/ha", "outline": "as §1"}, "chickweed [20]": {"tested_on": "chickweed", "assay": "Test Example 4: herbicidal effect by soil treatment (Table 19, symbol P)", "format": "in vivo, common chickweed (Stellaria media)", "conditions": "AAH 296 g/ha", "outline": "as §1"}, "barnyard grass [21]": {"tested_on": "barnyard grass", "assay": "Test Example 5: herbicidal effect by foliage application, plastic box (Table 20, symbol H)", "format": "in vivo, barnyard grass (Echinochloa crus-galli)", "conditions": "foliage application, AAH 296 g/ha, three weeks after application", "outline": "as §2"}, "chickweed [22]": {"tested_on": "chickweed", "assay": "Test Example 5: herbicidal effect by foliage application, plastic box (Table 20, symbol P)", "format": "in vivo, common chickweed (Stellaria media)", "conditions": "foliage application, AAH 296 g/ha, three weeks after application", "outline": "as §2"}, "southern crabgrass [23]": {"tested_on": "southern crabgrass", "assay": "Test Example 4: herbicidal effect by soil treatment (Table 19, symbol F)", "format": "in vivo, southern crabgrass (Digitaria ciliaris)", "conditions": "AAH 296 g/ha", "outline": "as §1"}, "blackgrass [24]": {"tested_on": "blackgrass", "assay": "Test Example 5: herbicidal effect by foliage application, plastic box (Table 20, symbol J)", "format": "in vivo, blackgrass (Alopecurus myosuroides)", "conditions": "foliage application, AAH 296 g/ha, three weeks after application", "outline": "as §2"}, "redroot pigweed [25]": {"tested_on": "redroot pigweed", "assay": "Test Example 4: herbicidal effect by soil treatment (Table 19, symbol N)", "format": "in vivo, redroot pigweed (Amaranthus retroflexus)", "conditions": "AAH 296 g/ha", "outline": "as §1"}}}
{"smiles": "Cc1nn(C)c(=O)c(-c2c(-c3cccc(C#N)c3)sc3ccccc23)c1O", "note": "[1-123]", "values": [{"measurement": "H: barnyard grass, herbicidal effect rating", "setting": "barnyard grass [1]", "result": "0 (Herbicidal rate of 5% or less (almost no effect))"}, {"measurement": "M: velvetleaf, herbicidal effect", "setting": "velvetleaf [2]", "result": "5 (Herbicidal rate of 90% or more (almost completely withered))"}, {"measurement": "N: redroot pigweed, herbicidal effect", "setting": "redroot pigweed [3]", "result": "5 (Herbicidal rate of 90% or more (almost completely withered))"}, {"measurement": "F: southern crabgrass, herbicidal effect", "setting": "southern crabgrass [4]", "result": "0 (Herbicidal rate of 5% or less (almost no effect))"}, {"measurement": "herbicidal effect on D (Chinese sprangletop), rating 0-5", "setting": "Chinese sprangletop", "result": "3 (Herbicidal rate of 40% or more and less than 70%)"}, {"measurement": "L: windgrass, herbicidal effect rating", "setting": "windgrass [5]", "result": "0 (Herbicidal rate of 5% or less (almost no effect))"}, {"measurement": "I: wild oat, herbicidal effect", "setting": "wild oat [6]", "result": "0 (Herbicidal rate of 5% or less (almost no effect))"}, {"measurement": "herbicidal effect on H (barnyard grass), rating 0-5", "setting": "barnyard grass [7]", "result": "3 (Herbicidal rate of 40% or more and less than 70%)"}, {"measurement": "herbicidal effect on E (rice flat sedge), rating 0-5", "setting": "rice flat sedge", "result": "3 (Herbicidal rate of 40% or more and less than 70%)"}, {"measurement": "K: Italian ryegrass, herbicidal effect rating", "setting": "Italian ryegrass [8]", "result": "0 (Herbicidal rate of 5% or less (almost no effect))"}, {"measurement": "G: green foxtail, herbicidal effect", "setting": "green foxtail [9]", "result": "0 (Herbicidal rate of 5% or less (almost no effect))"}, {"measurement": "R: persian speedwell, herbicidal effect rating", "setting": "persian speedwell [10]", "result": "3 (Herbicidal rate of 40% or more and less than 70%)"}, {"measurement": "O: lambsquarters, herbicidal effect", "setting": "lambsquarters [11]", "result": "3 (Herbicidal rate of 40% or more and less than 70%)"}, {"measurement": "L: windgrass, herbicidal effect", "setting": "windgrass [12]", "result": "0 (Herbicidal rate of 5% or less (almost no effect))"}, {"measurement": "G: green foxtail, herbicidal effect rating", "setting": "green foxtail [13]", "result": "0 (Herbicidal rate of 5% or less (almost no effect))"}, {"measurement": "O: lambsquarters, herbicidal effect rating", "setting": "lambsquarters [14]", "result": "4 (Herbicidal rate of 70% or more and less than 90%)"}, {"measurement": "K: Italian ryegrass, herbicidal effect", "setting": "Italian ryegrass [15]", "result": "0 (Herbicidal rate of 5% or less (almost no effect))"}, {"measurement": "I: wild oat, herbicidal effect rating", "setting": "wild oat [16]", "result": "0 (Herbicidal rate of 5% or less (almost no effect))"}, {"measurement": "M: velvetleaf, herbicidal effect rating", "setting": "velvetleaf [17]", "result": "0 (Herbicidal rate of 5% or less (almost no effect))"}, {"measurement": "R: persian speedwell, herbicidal effect", "setting": "persian speedwell [18]", "result": "1 (Herbicidal rate of 5% or more and less than 20%)"}, {"measurement": "J: blackgrass, herbicidal effect rating", "setting": "blackgrass [19]", "result": "0 (Herbicidal rate of 5% or less (almost no effect))"}, {"measurement": "P: chickweed, herbicidal effect rating", "setting": "chickweed [20]", "result": "1 (Herbicidal rate of 5% or more and less than 20%)"}, {"measurement": "H: barnyard grass, herbicidal effect", "setting": "barnyard grass [21]", "result": "0 (Herbicidal rate of 5% or less (almost no effect))"}, {"measurement": "P: chickweed, herbicidal effect", "setting": "chickweed [22]", "result": "5 (Herbicidal rate of 90% or more (almost completely withered))"}, {"measurement": "F: southern crabgrass, herbicidal effect rating", "setting": "southern crabgrass [23]", "result": "0 (Herbicidal rate of 5% or less (almost no effect))"}, {"measurement": "J: blackgrass, herbicidal effect", "setting": "blackgrass [24]", "result": "0 (Herbicidal rate of 5% or less (almost no effect))"}, {"measurement": "N: redroot pigweed, herbicidal effect rating", "setting": "redroot pigweed [25]", "result": "4 (Herbicidal rate of 70% or more and less than 90%)"}]}
